Laboratory results as given in patent publication US5157019A, “Serine protease inhibitors” (Monsanto Company, priority 1991, dated 1992).
Bridge positions count the residues as written; N and C are the ends. Ends that are not written are not given here.

Assays:
Assay type in all cases: biochemical
Thrombin = Thrombin (Homo sapiens, UniProt P00734); assay: Coagulation inhibition assay, thrombin (fibrinogen clotting end point); conditions: 40 μM peptide
Protocol: Inhibitory activity of subject peptides toward thrombin and Factor Xa were done in the following manner. Mix 100 μL Thrombin (3.125 units/ml, 1.125 μg/ml) in TAB with […] Peptide in TAB and incubate for 1 minute at 37° C. Add 50 μL Fibrinogen (2 mg/ml)and measure clotting end point (in seconds) in a Fibrometer (BBL) TAB=Thrombin Assay Buffer: 0.15M NaCl, 6.6 gm/L PEG-6000, 0.01M Imidazole, 0.01 CaCl2, pH 7.4

HUMAN SPUTUM ELASTASE = molecular target: T1, HUMAN SPUTUM ELASTASE (Homo sapiens, UniProt P08246); assay: Elastase assay (MeO-Suc-Ala-Pro-Val-pNA); conditions: 200 μM peptide
T1 construct: HUMAN SPUTUM ELASTASE; purchased Elastin Products Company SE563; host or cells: human sputum (from the product name)
T1 sequence (P08246 30-267): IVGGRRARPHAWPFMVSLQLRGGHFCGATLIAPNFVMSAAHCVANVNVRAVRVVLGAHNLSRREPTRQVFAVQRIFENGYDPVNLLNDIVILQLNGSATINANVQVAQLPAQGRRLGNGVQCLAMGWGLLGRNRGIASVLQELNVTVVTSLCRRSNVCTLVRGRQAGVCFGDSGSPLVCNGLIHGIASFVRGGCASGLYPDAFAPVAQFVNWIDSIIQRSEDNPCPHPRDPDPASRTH
Protocol: Enzyme used is "HUMAN SPUTUM ELASTASE®" which is an enzyme which is the target protease for α1 antitrypsin from Elastin Products Company, Catalog No. SE563, lot 85071, 875 units/mg as determined by supplier with N-Suc-Ala-Ala-Ala-pNA; prepared at 0.2 mg/mL in 0.1M Tris·HCl, pH 8.8 at 37 degrees C. An amount of enzyme is used to give approximately 0.1 change in Absorbance/min; which in this assay was 1 μg.
The substrate is MeO-Suc-Ala-Pro-Val-pNA, Sigma Catalog No. M-4765. About 50 mg of the substrate is dissolved in 1 ml of 1-methyl-2-pyrrolidinone and diluted to 33 mls. with 0.1M Tris-HCl, pH 7.5, containing 0.5M NaCl, and 0.01 wt % sodium azide.
Peptide solutions are prepared at 500 μM, using 1.5% of the final volume of DMSO first and diluting with distilled water (DW) or 0.1M Tris.HCl, pH 8.8 at 37 degrees C. [formula]

Cathepsin G = molecular target: T2, Cathepsin G (Homo sapiens, UniProt P08311); assay: Cathepsin G assay (Suc-Ala-Ala-Pro-Phe-pNA, 410 nm); conditions: 200 μM peptide (head of Table IX)
T2 construct: purchased Elastin Products Company (EPC) SG-45
T2 sequence (P08311 21-255): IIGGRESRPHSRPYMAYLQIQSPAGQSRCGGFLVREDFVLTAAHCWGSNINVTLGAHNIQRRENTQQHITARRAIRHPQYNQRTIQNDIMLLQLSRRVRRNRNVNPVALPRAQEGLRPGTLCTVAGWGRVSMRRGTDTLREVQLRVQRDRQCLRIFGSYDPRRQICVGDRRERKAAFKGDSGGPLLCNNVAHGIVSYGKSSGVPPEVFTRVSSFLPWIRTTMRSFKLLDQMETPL
Protocol: Reference: Elastin Products Company (EPC) technical data sheet, cathepsin G, No. SG-45.
Method: Spectrophotometric rate determination
A) Buffer; 0.1M Tris, pH 7.5 at 25° C.
B) Substrate; 60 mM Suc-Ala-Ala-Pro-Phe-pNA obtained from Sigma Chemical Company. Solution prepared by dissolving 50 mg substrate in 1.3 ml of 1-methyl-2-pyrrolidinone. Stored at 5° C.
C) Peptide Inhibitors; 200 μM HCl salt. Depending on peptide solubility, dissolved in buffer or DMSO and then buffer added for a final concentration of 10% DMSO.
D) Enzyme; Cathepsin G, EPC SG-45, lot 85117 used for all assays, 0.0077 mg protein per mg solid determined by supplier by Bradford method. Enzyme was dissolved in buffer at a concentration of approx. 5 mg/ml solid. Solution stored on ice, used within 2 hours.
Pipetted the following into semi-micro quartz cuvettes: 0.3 ml buffer, 0.15 ml peptide solution and 0.5 ml of substrate solution. Equilibrate for 5 min. at 25° C., then add 0.05 ml of enzyme solution and monitor the release of pNA spectrophotometrically at 410 nm for at least 3 minutes. The controls contain either 0.45 ml of buffer or 20% DMSO in buffer (for a final concentration of 10% DMSO).
The rate (O.D./min) is obtained as an average over 3 minutes. [formula]

tPA = molecular target: T3, tPA (Homo sapiens, UniProt P00750); assay: Tissue plasminogen activator (tPA) assay (S2288); conditions: for inhibition at 10 µM: 10 μM peptide
T3 construct: Enzyme tPA, 2 chain activity standard; purchased American Diagnostica, Inc. 116
T3 sequence (P00750 311-562 limits assumed): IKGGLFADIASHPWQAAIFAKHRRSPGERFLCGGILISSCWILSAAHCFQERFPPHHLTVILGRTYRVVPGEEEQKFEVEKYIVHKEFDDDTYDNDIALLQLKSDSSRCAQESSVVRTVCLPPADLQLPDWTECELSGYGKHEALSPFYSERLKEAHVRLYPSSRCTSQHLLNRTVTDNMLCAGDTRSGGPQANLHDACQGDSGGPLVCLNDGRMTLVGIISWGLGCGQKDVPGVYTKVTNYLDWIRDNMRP
T3 sequence (P00750 36-310 partner limits assumed): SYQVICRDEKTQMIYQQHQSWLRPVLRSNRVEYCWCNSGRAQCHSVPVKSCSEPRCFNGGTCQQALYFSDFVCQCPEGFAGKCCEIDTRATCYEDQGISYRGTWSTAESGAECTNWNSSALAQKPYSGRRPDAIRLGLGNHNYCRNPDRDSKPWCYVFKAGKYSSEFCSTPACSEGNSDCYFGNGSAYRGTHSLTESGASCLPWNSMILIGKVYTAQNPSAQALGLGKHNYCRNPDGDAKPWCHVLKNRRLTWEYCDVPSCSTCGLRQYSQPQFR
Protocol: Substrate H-D-Ile-Pro-Arg-pNA·2HCl (S2288, Kabi), 10 mM in deionized water; may be frozen for future use.
Buffer 50 mM Tris·HCl, pH 7.4 containing 0.01% Tween 80.
Inhibitor […] in deionized water.
Enzyme tPA, 2 chain activity standard (Catalog #116, American Diagnostica, Inc.); stock solution=10 μL of original solution per mL in buffer.
Mix 200 μL of buffer, 200 μL of deionized water (control) or inhibitor solution and 40 μL of substrate solution. Incubate for 2 min. at 37° C., add 40 μL of enzyme, mix, and measure rate spectrophotometrically at 405 nm for about 5 min. Inhibition (%) is calculated in the same manner as in previous assays.

C1s = molecular target: T4, C1s (Homo sapiens, UniProt P09871); assay: C1s assay by inhibition of fluid phase C4 activation; conditions: Table X; μM concentration at which protease was inhibited 50%; read-out: IC50 C1S
T4 construct: prepared from pooled human plasma; from tissue; host or cells: pooled human plasma
T4 sequence (P09871 16-688): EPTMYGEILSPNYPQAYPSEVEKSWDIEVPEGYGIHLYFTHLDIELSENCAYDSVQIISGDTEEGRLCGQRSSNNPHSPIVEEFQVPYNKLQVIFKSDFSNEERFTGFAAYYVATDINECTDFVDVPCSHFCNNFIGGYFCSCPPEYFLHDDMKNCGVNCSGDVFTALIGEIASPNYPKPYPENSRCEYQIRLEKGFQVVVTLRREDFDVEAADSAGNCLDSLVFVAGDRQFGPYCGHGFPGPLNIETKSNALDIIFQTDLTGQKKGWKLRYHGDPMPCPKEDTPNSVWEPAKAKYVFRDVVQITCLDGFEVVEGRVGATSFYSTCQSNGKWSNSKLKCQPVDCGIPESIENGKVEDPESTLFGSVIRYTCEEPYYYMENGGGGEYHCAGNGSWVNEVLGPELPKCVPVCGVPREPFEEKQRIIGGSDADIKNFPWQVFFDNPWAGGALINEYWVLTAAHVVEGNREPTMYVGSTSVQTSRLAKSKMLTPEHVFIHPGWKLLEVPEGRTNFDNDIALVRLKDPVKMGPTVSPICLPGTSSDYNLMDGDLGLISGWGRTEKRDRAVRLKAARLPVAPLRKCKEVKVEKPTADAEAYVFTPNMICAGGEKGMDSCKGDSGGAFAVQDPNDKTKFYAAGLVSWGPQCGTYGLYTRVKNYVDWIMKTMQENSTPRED
Protocol: (§1) Highly purified C3, C4, Factor D, Factor B, and C1s were prepared from pooled human plasma. Factors B and C4 were radiolabeled by periodate oxidation of sialic acid residues, followed by reduction with tritiated sodium borohydride. In a representative experiment, a solution of 1.2 mg of factor B in 1.8 ml of PBS was treated with 70 μl of 0.1M NaIO4. After 10 min incubation on ice, excess reagent was removed by filtration over "SEPHADEX®" which is a matrix for gel chromatography (1.0 cm×20 cm). To the protein pool was added 60 μl of NaB[^3 H]4 solution and incubated for 30 min on ice. Labeled protein was separated from excess reagent by desalting or dialysis. Human C4 was radiolabeled in the same manner. Radiolabeled proteins were stored at -70° C. in PBS. The specific radioactivity of ^3 H factor B was about 10,000 CPM/μg and that of ^3 H-C4 was 5,000 CPM/μg.
The cleavage of C4 was studied by incubating 10 μg of tritiated C4 with 3-5 ng of C1s at 37° C. for 30 min in 100 μl of PBS (pH 7.10) containing different concentrations of inhibitor. The reaction was stopped by the addition of 2-mercaptoethanol. The extent of cleavage was analyzed by SDS-polyacrylamide gel electrophoresis. The stained bands corresponding to C4α and C4α' were cut out and sliced. The radioactivity of the fragments was measured by liquid scintillation counting. The percent cleavage of the reaction was calculated as follows: [formula]
(§2) Electrophoresis was carried out under reducing conditions in the Laemmli system using slab gel of 8% polyacrylamide. The gels were stained and destained (Fairbanks et al. Biochemistry (1971) 10:2606).
(§3) The percent inhibition of the reaction was calculated according to the following relationship: [formula]
(§4) A: % cleavage without inhibitor
(§5) B: % cleavage with inhibitor
(§6) The concentration inducing 50% inhibition was obtained by plotting the percent inhibition on a probability graph (National Blank Book Co., No. 12-083) on the ordinate and the log of the inhibitor concentration on the abscissa. From this graph, a 50% inhibition concentration IC50 was obtained and this value was employed to express the activity.

Factor D = molecular target: T5, Factor D (Homo sapiens, UniProt P00746); assay: Factor D assay by inhibition of fluid phase Factor B activation; conditions: Table X; μM concentration at which protease was inhibited 50%; read-out: IC50 D
T5 construct: prepared from pooled human plasma; from tissue; host or cells: pooled human plasma
T5 sequence (P00746 26-253): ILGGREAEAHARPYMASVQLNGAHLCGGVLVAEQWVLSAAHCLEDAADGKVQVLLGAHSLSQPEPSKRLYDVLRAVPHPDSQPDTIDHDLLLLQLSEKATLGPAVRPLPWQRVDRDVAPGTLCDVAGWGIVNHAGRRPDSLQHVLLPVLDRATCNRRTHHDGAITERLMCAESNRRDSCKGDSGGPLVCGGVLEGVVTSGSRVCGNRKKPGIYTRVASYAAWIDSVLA
Protocol: as §1
The effect of the peptides on Factor D-dependent cleavage of factor B was studied by incubating 3.5 μg of Factor B, 1.5 μg of C3(H2 O) and 0.2 μl of Factor D at 37° C. for 60 min in Mg-PBS containing different concentrations of inhibitor. Uncleaved Factor B and its fragments, Ba and Bb, were first separated by SDS-PAGE and analyzed as described above. The percent cleavage of the reaction was calculated as follows: [formula]
B=radioactivity (CPM) of uncleaved factor B
Bb=radioactivity (CPM) of fragment Bb
Ba=radioactivity (CPM) of fragment Ba
as §2, §3, §4, §5, §6

| Sequence | Elastase Inhibition (HUMAN SPUTUM ELASTASE) [%] | Cathepsin G Inhibition (Cathepsin G) [%] | other results |
| --- | --- | --- | --- |
| AGRSLNPNRTIVRFNRPFLLII [Peptide 11] | – | – | inhibition at 40 µM (Thrombin): 81%; inhibition at 200 µM (HUMAN SPUTUM ELASTASE): 15%; inhibition at 200 µM (Cathepsin G): 40% |
| FLEAIPMSIPPEVKFNKPFVFLI [Peptide 4] | – | – | inhibition at 200 µM (HUMAN SPUTUM ELASTASE): 70%; inhibition at 200 µM (Cathepsin G): 14% |
| FLEAIPMSIPPEVKFNKPFVFLLIEQNTKSPLFLGKVVNPTQK [Peptide 24] | 26 | 0 | – |
| FLEAIPMSIPPIVRFNRPFLLII [Peptide 19] | 100 | – | – |
| FLEAIPMSIPPIVRFNRPFLLIIVPTDTQNIFFLSKVTNPSKPR [Peptide 32] | 0 | 0 | – |
| FLEAIPMSIPPRVTFKANRPFLVFIREVPLNTIIFLGRVANP [Peptide 28] | 0 | 16 | – |
| FLEAIPMSIPPTFKANRPFLVFI [Peptide 8] | 77 | 44 | Thrombin inhibition (Thrombin): 30% |
| FLEAIPMSIRTIVRFNRPFLLII [Peptide 12] | 0 | 51 | – |
| IAGRSLNPNIVRFNRPFLLIIVPTDTQNIFFLSKVTNPSKPR [Peptide 31] | 0 | 54 | – |
| IAGRSLNPNPPEVKFKNPFVFLI [Peptide 5] | 0 | 0 | – |
| IAGRSLNPNRVTFKANRPFCVFIREVPLNTIIFLGCVANPAVK (disulfide 20-36) [Peptide 45] | – | – | inhibition at 20 µM (tPA; 20 μM peptide): 69% |
| IAGRSLNPNRVTLRYNKPFILVLFETPGNSLVFLGRISNPATK [Peptide 33] | 0 | 35 | – |
| IAGRSLNPNRVTVKFNKPFVFLLIEQNTKSPLFLGKVVNPTQK [Peptide 25] | 0 | 35 | – |
| IDGRIVEGSRVTFKANRPFLVFI [Peptide 18] | – | – | IC50 (C1s): 40 µM; IC50 (Factor D): 43 µM |
| LQRALEILRVTFKANRPFLVFI [Peptide 14] | – | – | IC50 (C1s): 9 µM; IC50 (Factor D): 8 µM |
| PFLVFILPNIFLGRVAN [Peptide 43] | – | – | inhibition at 10 µM (tPA): 7% |
| RPFLVFILPGIFLGRVANP [Peptide 38] | – | – | inhibition at 10 µM (tPA): 59% |
| RPFLVFILPNIFLGRVAN [Peptide 42] | – | – | inhibition at 10 µM (tPA): 44% |
| TLLSALVETPPEVKFKNPFVFLI [Peptide 6] | 17 | 0 | – |
| TLLSALVETRTIVKFNKPFVFLLIEQNTKSPLFLGKVVNPTQK [Peptide 26] | – | 0 | – |
| TLLSALVETRTIVRFNRPFLLII [Peptide 10] | 0 | 65 | – |
| TLLSALVETRTIVRFNRPFLLIIVPTDTQNIFFLSKVTNPSKPR [Peptide 30] | – | 38 | – |
| TLLSALVETRVTFKANRPFLVFI [Peptide 9] | – | 41 | Thrombin inhibition (Thrombin): 32% |
